Laboratory results published in ChEMBL document CHEMBL1201862, “PubChem BioAssay data set” (2004).
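96-well plates; 48 h exposure; 5 concentrations. Endpoints by linear interpolation between flanking doses. Not reached: highest tested concentration assigned. GI50 is the concentration that inhibits growth by half.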 Calls of active or inactive are those of the source. Cut-off read from the data, not from the text of the source: active = GI50 up to about 1.1 µM and inactive = higher.

How the values were obtained:
Experiment in all cases: inhibition of tumour cell growth, NCI panel, 48 h
Malme-3M = tested on: Malme-3M
SW-620 = tested on: SW-620
LOX IMVI = tested on: LOX IMVI
NCI-H226 = tested on: NCI-H226
HL-60 = tested on: HL-60
HCT-116 = tested on: HCT-116
OVCAR-5 = tested on: OVCAR-5
DMS-114 = tested on: DMS-114
UACC-62 = tested on: UACC-62
IGROV-1 = tested on: IGROV-1
786-0 = tested on: 786-0
COLO 205 = tested on: COLO 205
EKVX = tested on: EKVX
NCI-H23 = tested on: NCI-H23
SK-OV-3 = tested on: SK-OV-3
CAKI-1 = tested on: CAKI-1
OVCAR-8 = tested on: OVCAR-8
BT-549 = tested on: BT-549
PC-3 = tested on: PC-3
OVCAR-4 = tested on: OVCAR-4

Measured: GI50

CS(=O)(=O)CC1=Nc2nnc(CCCCCCCc3nnc4n3C(=O)C(CS(C)(=O)=O)=N4)n2C1=O
inactive: Malme-3M > 100 µM | SW-620 > 100 µM | LOX IMVI > 100 µM | NCI-H226 > 100 µM | HL-60 > 100 µM | HCT-116 > 100 µM | OVCAR-5 > 100 µM | DMS-114 > 100 µM | UACC-62 > 100 µM | IGROV-1 > 100 µM | 786-0 > 100 µM | COLO 205 > 100 µM | EKVX > 100 µM | NCI-H23 > 100 µM | SK-OV-3 > 100 µM | CAKI-1 > 100 µM | OVCAR-8 > 100 µM

COc1ccc(/C=C\c2cc(OC)c(OC)c(OC)c2)cc1OC(=O)CC(N)C(=O)O (stereo not given)
inactive: EKVX 34.8 µM
active: BT-549 0.00646 µM | Malme-3M 0.00258 µM | SW-620 0.00135 µM | LOX IMVI 0.00254 µM | NCI-H226 0.054 µM | PC-3 0.000776 µM | HL-60 0.000899 µM | HCT-116 0.00103 µM | OVCAR-5 0.327 µM | DMS-114 0.00122 µM | OVCAR-4 0.189 µM | UACC-62 0.00113 µM | IGROV-1 0.0124 µM | 786-0 0.0111 µM | COLO 205 0.635 µM | NCI-H23 0.0021 µM | SK-OV-3 0.00423 µM | CAKI-1 0.307 µM | OVCAR-8 0.00301 µM

COc1cccc(N2C(=O)C3C4C=C5c6ccccc6N(c6ccccc6)C5(C3C2=O)[C@H]2C(=O)N(c3cccc(OC)c3)C(=O)[C@@H]42)c1 (stereo not given in full)
inactive: Malme-3M > 100 µM | SW-620 > 100 µM | LOX IMVI > 100 µM | NCI-H226 > 100 µM | HL-60 > 100 µM | HCT-116 > 100 µM | OVCAR-5 > 100 µM | DMS-114 > 100 µM | OVCAR-4 > 100 µM | UACC-62 > 100 µM | IGROV-1 > 100 µM | 786-0 > 100 µM | COLO 205 > 100 µM | EKVX > 100 µM | NCI-H23 > 100 µM | SK-OV-3 > 100 µM | CAKI-1 > 100 µM | OVCAR-8 > 100 µM

COC(=O)/C(=C/c1ccc(OC)cc1)c1cc(OC)c(OC)c(OC)c1
inactive: BT-549 34 µM | Malme-3M 1.2 µM | LOX IMVI 4.42 µM | NCI-H226 6.55 µM | HCT-116 2.16 µM | OVCAR-5 14.9 µM | DMS-114 2.96 µM | OVCAR-4 7.43 µM | IGROV-1 2.48 µM | 786-0 4.12 µM | COLO 205 1.47 µM | EKVX 8.69 µM | NCI-H23 2.84 µM | SK-OV-3 1.34 µM | CAKI-1 1.12 µM | OVCAR-8 4.28 µM
active: SW-620 0.643 µM | PC-3 0.693 µM | HL-60 0.406 µM | UACC-62 0.631 µM

CCOC(=O)C1Cc2c(ccc(OC)c2OC)C(=O)C1N (stereo not given)
inactive: Malme-3M > 100 µM | SW-620 > 100 µM | LOX IMVI > 100 µM | NCI-H226 > 100 µM | HL-60 > 100 µM | HCT-116 > 100 µM | OVCAR-5 > 100 µM | DMS-114 > 100 µM | OVCAR-4 82.2 µM | UACC-62 > 100 µM | IGROV-1 > 100 µM | 786-0 > 100 µM | COLO 205 > 100 µM | EKVX 21.5 µM | NCI-H23 > 100 µM | SK-OV-3 > 100 µM | CAKI-1 > 100 µM | OVCAR-8 > 100 µM

O=C(O/N=C1/CCC/C1=C\c1ccccc1)c1ccc([N+](=O)[O-])cc1
inactive: Malme-3M > 100 µM | SW-620 > 100 µM | LOX IMVI > 100 µM | NCI-H226 > 100 µM | HL-60 > 100 µM | HCT-116 > 100 µM | OVCAR-5 > 100 µM | DMS-114 > 100 µM | OVCAR-4 > 100 µM | UACC-62 > 100 µM | IGROV-1 > 100 µM | 786-0 > 100 µM | COLO 205 > 100 µM | EKVX > 100 µM | NCI-H23 > 100 µM | SK-OV-3 > 100 µM | CAKI-1 > 100 µM | OVCAR-8 > 100 µM

Nc1ncnc2c(C3OC(CO)C(O)C3O)c[nH]c12 (stereo not given)
active: BT-549 0.0138 µM | Malme-3M < 0.0135 µM | SW-620 0.00195 µM | LOX IMVI 0.00282 µM | NCI-H226 < 0.0138 µM | PC-3 0.00515 µM | HCT-116 0.01 µM | OVCAR-5 0.00804 µM | DMS-114 0.00421 µM | OVCAR-4 0.0146 µM | UACC-62 0.00718 µM | IGROV-1 0.00422 µM | 786-0 0.00317 µM | COLO 205 0.01 µM | EKVX 0.0144 µM | NCI-H23 0.0131 µM | SK-OV-3 0.000552 µM | CAKI-1 0.00306 µM | OVCAR-8 0.00227 µM
